Columns and labels:
[1] = system: serum levels of cytokine analytes; conditions: in vivo
[2] = system: serum levels of cytokine analytes
Protocol: T cell products were generated by transduction of autologous lymphocytes with a g-murine retrovirus carrying an anti-CD19 CAR construct gene, followed by expansion to achieve desired cell dose. Anti-CD19 CAR+ T cell product characteristics were evaluated at time of harvest, or after co-culture with CD19+ cells, by flow cytometry and multiplex cytokine analysis of co-culture supernatants. CAR+ T cell co-culture for product characterization was performed with K562-CD19 cells or K562-NGFR control cells, at an effector to target ratio of 1:1. Standard incubation time was 18 hours.
Cytokine and chemokine levels were measured using EMDmillipore Luminex® xMAP® multiplex assays. Data acquisition and analysis were performed using a Luminex 200™ instrument and xPONENT® 3.1 data analysis software. For IL-7, a human IL-7 Quantikine HS ELISA Kit (HS750) was used with samples run neat per manufacturer's guidelines. The frequency of CAR T cells in circulation was measured by a quantitative PCR analysis. Patients were administered a preconditioning regimen comprising of 300 mg/m^2 cyclophosphamide on days −5 and −4, and 30 mg/m^2 fludarabine on days −5, −4, and −3. Patient sera was collected prior to administration of cyclophosphamide and fludarabine between days −12 and −5 (“pre”), immediately before administration of CAR+ T cells on day 0 (“post”) and on select days following CAR+ T cell administration up to day 18. The serum concentrations of GF-CSF, IL-2, MCP-1, IL-6, IL-10, MCP-4, CRP, IFN gamma, Granzyme A, IL-15, IL-5, Granzyme B, IL-8, IP-10, MIP-1b, PLGF, IL-16, TARC, Eotaxin-3, sICAM-1, sVCAM-1, and SAA were measured pre- and post-conditioning and on select days after administration of CAR+ T cells, as shown in FIG. 6.

[3] = human, in vivo
[4] = 300 mg/m^2 cyclophosphamide, 30 mg/m^2 fludarabine, pre vs day 0

## cyclophosphamide and fludarabine
[1]
  CRP increase, average: about 10 fold
  CRP increase, range: essentially no change to an increase of about 25 fold
  CRP level in patient sera after conditioning: increased in some patients and remained stable or decreased in others
  Change in serum CRP: essentially no change
  Change in serum PLGF: only a slight increase
  Change in serum VEGF-D: essentially no change
  Change in serum sICAM-1: essentially no change
  Decrease of serum MIP-1β: about 50%
  IL-15 increase relative to baseline: less than 10 fold
  IL-15 increase relative to baseline, average: about 35 fold
  IL-15 level in patient sera after conditioning: at least some increase
  MCP-1 increase: less than 4 fold
  MCP-1 increase, average: about 5 fold
  MCP-1 level in patient sera after conditioning: at least some increase
  MIP-1 β level in patient sera after conditioning: increased in some patients and remained stable or decreased in others
  MIP-10 levels increase, average: about 1.5 fold
  MIP-10 levels increase, range: essentially no change to an increase of about 3 fold
  PLGF increase, average: about 30 fold
  PLGF increase, range: about 2 fold or less to an increase of about over 100 fold
  PLGF level in patient sera after conditioning: at least some increase
  VEGF-D increase, average: about 3 fold
  VEGF-D increase, range: essentially no change to an increase of about 6 fold
  VEGF-D level in patient sera after conditioning: increased in some patients and remained stable or decreased in others
  sICAM-1 increase, average: about 3 fold
  sICAM-1 increase, range: essentially no change to an increase of about 4.5 fold
  sICAM-1 level in patient sera after conditioning: increased in some patients and remained stable or decreased in others
[1]; ip
  Change in serum IP-10: essentially no change
  IP-10 increase, average: about 3.5 fold
  IP-10 level in patient sera after conditioning: increased in some patients and remained stable or decreased in others
[2]; [4]
  Serum concentration of CRP following conditioning: significantly increased
  Serum concentration of IL-5 following conditioning: Increases
  Serum concentration of IL-7 following conditioning: significantly increased
  Serum concentration of IL-10 following conditioning: Increases
  Serum concentration of IL-15 following conditioning: significantly increased
  Serum concentration of IP-10 following conditioning: Increases
  Serum concentration of MCP-1 following conditioning: significantly increased
  Serum concentration of PLGF following conditioning: significantly increased
  Serum concentration of s-ICAM1 following conditioning: Increases
  Serum perform after conditioning: decrease
[2]; FIG. 14, markers measured prior to CAR T cell infusion
  Markers showing changes in a majority of patients, associated with p<0.05: 7 out of 41 measured markers

## O=P1(N(CCCl)CCCl)NCCCO1 (centres unmarked) [cyclophosphamide]
[3]
  Incidence of dose limiting toxicity (DLT): 29%
